These results are taken from patent publication US8859549B2, “Potassium channel modulators” (AbbVie, Inc., priority 2011, dated 2014).

SMILES strings stand for the structures. pEC50: −log10 of the molar value.

In this experiment the target is T1, KCNQ 2/3 channels (Homo sapiens, UniProt O43525+O43526).
T1 construct: expressed in transfected cells; host or cells: HEK293
Nature of the experiment: KCNQ 2/3 channel activation, thallium flux FLIPR assay (BTC-AM dye). The note with it: for Emax: HEK293, maximum response relative to the response of 10 μM retigabine (set at 100%), read-out: % MAX; for Emax / % MAX: HEK293 KCNQ2/KCNQ3 cells; for pEC50: HEK293 cells stably expressing human KCNQ2 and KCNQ3 subunits, thallium-induced fluorescence, 4 min compound incubation; for % MAX: maximum response relative to the response of 10 μM retigabine (set at 100%). The experiment is classed as cell-based. On the procedure:
The following example describes the assay that can be used to identify compounds that activate KCNQ 2/3 channels.
HEK293 cells stably expressing human KCNQ2 and KCNQ3 subunits were seeded in 96-well, black-walled, clear-bottomed, poly-D-lysine coated plates (BD Biosciences, Bedford, Mass.) at a density of 1×10^5 cells per well 24 hours before the assay. On the assay day, BTC-AM dye (Invitrogen, Carlsbad, Calif.) was loaded into the cells by replacing the cell culture medium with 55 μL/well of 3 μg/mL dye in DPBS. Dye loading was allowed to proceed for 2 hours at room temperature and then cells were washed twice with 50 μL/well of assay buffer (in mM: 10 HEPES pH 7.3, 5 glucose, 140 Na-gluconate, 2.5 K-gluconate, 3.6 Ca-gluconate, 2 MgSO4, 0.1 Ouabain) to remove unloaded dye. Cells were incubated in 50 μL of assay buffer before loading onto a FLIPR system (Molecular Devices, Sunnyvale, Calif.). Various concentrations of compounds to be assayed were added to the cells in 50 μL of assay buffer and incubated for 4 minutes. The fluorescence signal was initiated by adding 100 μL of assay buffer containing 6 mM TlNO3 and 10 mM K2SO4. Fluors were excited using the 488-nm line of an argon laser and emission was filtered using a 540±30 nm bandpass filter. Fluorescent signals were recorded for 3 minutes. Sums of the responses over basal responses were plotted versus concentrations of test compounds to obtain an EC50 value. The maximum response for each test compound was determined relative to the response produced by 10 μM retigabine. The maximum response of retigabine at 10 μM was set at 100%.

The term pEC50 denotes the negative decadic logarithm of the EC50, by convention in mol/L. Low values mean a large EC50, high ones a small EC50.

`Cc1cc(-c2nn(NC(=O)CC3CC4CCC3C4)c(=O)c3ccccc23)ccn1` (racemic) [Example 50, (±)-2-[(exo)-bicyclo[2.2.1]hept-2-yl]-N-[4-(2-methylpyridin-4-yl)-1-oxophthalazin-2(1H)-yl]acetamide]: the Emax came to 151% and the pEC50 is 5.95.
The corresponding values for `CCOC(=O)c1nn(NC(=O)CC2CC3CCC2C3)c(=O)c2ccccc12` (racemic) [Example 51, (±)-ethyl 3-{[(exo)-bicyclo[2.2.1]hept-2-ylacetyl]amino}-4-oxo-3,4-dihydrophthalazine-1-carboxylate] are 171% and 6.56.
The corresponding values for `O=C(CC1CC2CCC1C2)Nn1nc(-c2ccc(F)nc2)c2ccccc2c1=O` (racemic) [Example 54, (±)-2-[(exo)-bicyclo[2.2.1]hept-2-yl]-N-[4-(6-fluoropyridin-3-yl)-1-oxophthalazin-2(1H)-yl]acetamide] are 183% and 6.39.
The corresponding values for `O=C(CC1CC2CCC1C2)Nn1nc(C(=O)O)c2ccccc2c1=O` (racemic) [Example 55, (±)-3-{[(exo)-bicyclo[2.2.1]hept-2-ylacetyl]amino}-4-oxo-3,4-dihydrophthalazine-1-carboxylic acid] are 149% and 5.86.
Regarding `CN(C)C(=O)c1nn(NC(=O)CC2CC3CCC2C3)c(=O)c2ccccc12` (racemic) [Example 56, (±)-3-{[(exo)-bicyclo[2.2.1]hept-2-ylacetyl]amino}-N,N-dimethyl-4-oxo-3,4-dihydrophthalazine-1-carboxamide], the Emax was 84.9%.
As for `O=C(CC1CC2CCC1C2)Nn1nc(Sc2ccccc2)c2ccccc2c1=O` (racemic) [Example 59, (±)-2-[(exo)-bicyclo[2.2.1]hept-2-yl]-N-[1-oxo-4-(phenylsulfanyl)phthalazin-2(1H)-yl]acetamide], the Emax amounted to 192% and the pEC50 is 7.84.
As to `CC1CN(c2nn(NC(=O)CC3CC4CCC3C4)c(=O)c3ccccc23)CC(C)O1` (racemic) [Example 64, (±)-2-[(exo)-bicyclo[2.2.1]hept-2-yl]-N-[4-(2,6-dimethylmorpholin-4-yl)-1-oxophthalazin-2(1H)-yl]acetamide], the pEC50 is 7.04 and the “% MAX” value was determined as 144%.
In the case of `O=C(CC1CC2CCC1C2)Nn1nc(S(=O)(=O)c2ccccc2)c2ccccc2c1=O` (racemic) [Example 70, (±)-2-[(exo)-bicyclo[2.2.1]hept-2-yl]-N-[1-oxo-4-(phenylsulfonyl)phthalazin-2(1H)-yl]acetamide], the Emax was 179% and the pEC50 was 7.88.
As for `NC(=O)c1cc(-c2nn(NC(=O)CC3CC4CCC3C4)c(=O)c3ccccc23)ccn1` (racemic) [Example 72, (±)-4-(3-{[(exo)-bicyclo[2.2.1]hept-2-ylacetyl]amino}-4-oxo-3,4-dihydrophthalazin-1-yl)pyridine-2-carboxamide], the Emax came to 13.7%.
Still for that read-out and setting: the same measure for `COC(=O)c1cc(-c2nn(NC(=O)CC3CC4CCC3C4)c(=O)c3ccccc23)ccn1` (racemic) [Example 74, (±)-methyl 4-(3-{[(exo)-bicyclo[2.2.1]hept-2-ylacetyl]amino}-4-oxo-3,4-dihydrophthalazin-1-yl)pyridine-2-carboxylate]: 21.8%.
On to `O=C(CC1CC2CCC1C2)Nn1nc(-c2ccnc(C(=O)O)c2)c2ccccc2c1=O` (racemic) [Example 75, (±)-4-(3-{[(exo)-bicyclo[2.2.1]hept-2-ylacetyl]amino}-4-oxo-3,4-dihydrophthalazin-1-yl)pyridine-2-carboxylic acid], for which the Emax came out at 183% and the pEC50 is 5.39.
With `CC1CN(c2nn(NC(=O)CC3CC4CCC3C4)c(=O)c3ccccc23)CC(C)O1` (racemic) [Example 90, (±)-2-[(exo)-bicyclo[2.2.1]hept-2-yl]-N-{4-[(cis)-2,6-dimethylmorpholin-4-yl]-1-oxophthalazin-2(1H)-yl}acetamide], the negative-log EC50 (pEC50) was 6.85 and the “% MAX” value is recorded as 196%.
As for `O=C(CC1CC2CCC1C2)Nn1nc(N2CCSCC2)c2ccccc2c1=O` (racemic) [Example 93, (±)-2-[(exo)-bicyclo[2.2.1]hept-2-yl]-N-[1-oxo-4-(thiomorpholin-4-yl)phthalazin-2(1H)-yl]acetamide], the Emax stood at 229% and the pEC50 is 7.11.
For `CC(C)(C)OC(=O)c1nn(NC(=O)CC2CC3CCC2C3)c(=O)c2ccccc12` (racemic) [Example 94, (±)-tert-butyl 3-{[(exo)-bicyclo[2.2.1]hept-2-ylacetyl]amino}-4-oxo-3,4-dihydrophthalazine-1-carboxylate], the Emax turned out to be 201% and the pEC50 is 7.12.
Regarding `O=C(CC1CC2CCC1C2)Nn1nc(C(=O)N2CCOCC2)c2ccccc2c1=O` (racemic) [Example 95, (±)-2-[(exo)-bicyclo[2.2.1]hept-2-yl]-N-[4-(morpholin-4-ylcarbonyl)-1-oxophthalazin-2(1H)-yl]acetamide], the Emax was 73%.
On to `O=C(CC1CC2CCC1C2)Nn1nc(CNC(=O)OCc2ccccc2)c2ccccc2c1=O` (racemic) [Example 96, (±)-benzyl[(3-{[(exo)-bicyclo[2.2.1]hept-2-ylacetyl]amino}-4-oxo-3,4-dihydrophthalazin-1-yl)methyl]carbamate], for which the Emax turned out to be 79.4% and the negative logarithm of the EC50 (pEC50) is 6.50.
The corresponding values for `O=C(CC1CC2CCC1C2)Nn1nc(Cc2ccncc2)c2ccccc2c1=O` (racemic) [Example 97, (±)-2-[(exo)-bicyclo[2.2.1]hept-2-yl]-N-[1-oxo-4-(pyridin-4-ylmethyl)phthalazin-2(1H)-yl]acetamide] are 173% and 5.57.
The corresponding values for `CC(C)(C)OC(=O)N1CCN(C(=O)c2nn(NC(=O)CC3CC4CCC3C4)c(=O)c3ccccc23)CC1` (racemic) [Example 98, (±)-tert-butyl 4-[(3-{[(exo)-bicyclo[2.2.1]hept-2-ylacetyl]amino}-4-oxo-3,4-dihydrophthalazin-1-yl)carbonyl]piperazine-1-carboxylate] are 140% and 5.30.
The corresponding values for `CC(C)(C)NC(=O)c1nn(NC(=O)CC2CC3CCC2C3)c(=O)c2ccccc12` (racemic) [Example 99, (±)-3-{[(exo)-bicyclo[2.2.1]hept-2-ylacetyl]amino}-N-tert-butyl-4-oxo-3,4-dihydrophthalazine-1-carboxamide] are 177% and 6.69.
Take `O=C(CC1CC2CCC1C2)Nn1nc(Cc2cc[n+]([O-])cc2)c2ccccc2c1=O` (racemic) [Example 100, (±)-2-[(exo)-bicyclo[2.2.1]hept-2-yl]-N-{4-[(1-oxidopyridin-4-yl)methyl]-1-oxophthalazin-2(1H)-yl}acetamide]: the Emax came to 53.4% and the pEC50 was 6.04.
For `O=C(CC1CC2CCC1C2)Nn1nc(C(O)c2ccccc2)c2ccccc2c1=O` (racemic) [Example 102, (±)-2-[(exo)-bicyclo[2.2.1]hept-2-yl]-N-{4-[hydroxy(phenyl)methyl]-1-oxophthalazin-2(1H)-yl}acetamide], the Emax was found to be 212% and the pEC50 is 6.05.
The corresponding values for `O=C(CC1CC2CCC1C2)Nn1nc(C(=O)Nc2ccc(Cl)cc2)c2ccccc2c1=O` (racemic) [Example 108, (±)-3-{[(exo)-bicyclo[2.2.1]hept-2-ylacetyl]amino}-N-(4-chlorophenyl)-4-oxo-3,4-dihydrophthalazine-1-carboxamide] are 155% and 5.69.
As to `O=C(CC1CC2CCC1C2)Nn1nc(C(=NO)c2ccccc2)c2ccccc2c1=O` (racemic) [Example 120, (±)-2-[(exo)-bicyclo[2.2.1]hept-2-yl]-N-{4-[(Z)-(hydroxyimino)(phenyl)methyl]-1-oxophthalazin-2(1H)-yl}acetamide], the Emax is 136% and the negative-log EC50 (pEC50) is 5.50.
For the compound `CC(C)(C)OC(=O)NC(c1ccccc1)c1nn(NC(=O)CC2CC3CCC2C3)c(=O)c2ccccc12` (racemic) [Example 179, tert-butyl(±)-[(3-{[(exo)-bicyclo[2.2.1]hept-2-ylacetyl]amino}-4-oxo-3,4-dihydrophthalazin-1-yl)(phenyl)methyl]carbamate], the Emax amounted to 185% and the pEC50 was 6.57.
The corresponding values for `O=C(CC1CC2CCC1C2)Nn1nc(N2CCS(=O)(=O)CC2)c2ccccc2c1=O` (racemic) [Example 190, (±)-2-[(exo)-bicyclo[2.2.1]hept-2-yl]-N-[4-(1,1-dioxidothiomorpholin-4-yl)-1-oxophthalazin-2(1H)-yl]acetamide] are 74.3% and 4.97.
